Consider two molecules from patent US20030212088A1, “Methods and compositions for treating, preventing or delaying onset of a neoplasm” (priority 2002, published 2003).

Counter-ions that a name gives are not always drawn.

The test has as its system Mouse serum IGF-1. Kind of test: Serum IGF-I radioimmunoassay in CT-26 tumor-bearing mice. The test is classed as in vivo, BALB/c mice. To be noted: serum collected at sacrifice (day 24); Pegvisomant 5.0 mg/day s.c.; Irinotecan 100 mg/kg on post-inoculation days 7, 14, 21.

Description: CT-26 cells (mouse colon carcinoma) are grown in DMEM with 10% fetal bovine serum until the cells are approximately 50% confluent. Trypsin is used to lift adherent cells from the surface of tissue culture flask. The cells are then washed and suspended in Hank's buffered saline solution. BALB/c mice (Jackson Laboratories, Bar Harbor, Me.), 5-8 weeks of age, are used in this example. Initially, the spleen is mobilized using a left flank incision. Direct splenic injections of CT-26 cells is performed (1×10^4 viable cells, 0.05 ml total volume). Wound clips are used to close the incision. This is a syngenic colon cancer model so the host animals are not immunocompromised.
Injections are administered on the flank opposite the side of the wound clips from the splenic injection using a 25-gauge needle on a tuberculin syringe.
Mice are sacrificed on day 24. […] Treatment groups are compared using a standard t-test.
Mouse serum IGF-1 is measured by radioimmunoassay (RIA) after acid-ethanol extraction. Briefly, the serum/extraction mixture is incubated at room temperature for 2 hours, centrifuged, and the supernatant is diluted 1:200 for analysis. IGF-I concentrations are the measured by RIA using a polyclonal rabbit antibody (Nicohls Institute, San Juan Capistrano, Calif.). The assay standards are created with recombinant human IGF-I (Amersham International, Bucks, UK).

The molecule `CCc1c2c(nc3ccc(OC(=O)N4CCC(N5CCCCC5)CC4)cc13)-c1cc3c(c(=O)n1C2)COC(=O)[C@]3(O)CC` [Irinotecan, (4S)-4,11-diethyl-4-hydroxy-9-((4-piperidinopiperidino)carbonyloxy)-1H-pyrano (3′,4′:6,7)indolizino(1,2-b)quinoline-3,14(4H,12H) dione hydrochloride] had a serum IGF-I concentration (mean ± standard error) of 129 ± 5.9 µg/L.
Pegvisomant registered a serum IGF-I concentration (mean ± standard error) of 50 ± 5.3 µg/L.
